IC50 data for 30 compounds are collected here from US8546588B2, “Substituted hydroxamic acids and uses thereof” (Millennium Pharmaceuticals, Inc., priority 2010, dated 2013).

Each structure is given as a SMILES string.

This assay concerns the target T1, purified human HDAC6 (Homo sapiens, UniProt Q9UBN7).
T1 construct: purchased BPS Bioscience 5006
T1 sequence (Q9UBN7 1-1215): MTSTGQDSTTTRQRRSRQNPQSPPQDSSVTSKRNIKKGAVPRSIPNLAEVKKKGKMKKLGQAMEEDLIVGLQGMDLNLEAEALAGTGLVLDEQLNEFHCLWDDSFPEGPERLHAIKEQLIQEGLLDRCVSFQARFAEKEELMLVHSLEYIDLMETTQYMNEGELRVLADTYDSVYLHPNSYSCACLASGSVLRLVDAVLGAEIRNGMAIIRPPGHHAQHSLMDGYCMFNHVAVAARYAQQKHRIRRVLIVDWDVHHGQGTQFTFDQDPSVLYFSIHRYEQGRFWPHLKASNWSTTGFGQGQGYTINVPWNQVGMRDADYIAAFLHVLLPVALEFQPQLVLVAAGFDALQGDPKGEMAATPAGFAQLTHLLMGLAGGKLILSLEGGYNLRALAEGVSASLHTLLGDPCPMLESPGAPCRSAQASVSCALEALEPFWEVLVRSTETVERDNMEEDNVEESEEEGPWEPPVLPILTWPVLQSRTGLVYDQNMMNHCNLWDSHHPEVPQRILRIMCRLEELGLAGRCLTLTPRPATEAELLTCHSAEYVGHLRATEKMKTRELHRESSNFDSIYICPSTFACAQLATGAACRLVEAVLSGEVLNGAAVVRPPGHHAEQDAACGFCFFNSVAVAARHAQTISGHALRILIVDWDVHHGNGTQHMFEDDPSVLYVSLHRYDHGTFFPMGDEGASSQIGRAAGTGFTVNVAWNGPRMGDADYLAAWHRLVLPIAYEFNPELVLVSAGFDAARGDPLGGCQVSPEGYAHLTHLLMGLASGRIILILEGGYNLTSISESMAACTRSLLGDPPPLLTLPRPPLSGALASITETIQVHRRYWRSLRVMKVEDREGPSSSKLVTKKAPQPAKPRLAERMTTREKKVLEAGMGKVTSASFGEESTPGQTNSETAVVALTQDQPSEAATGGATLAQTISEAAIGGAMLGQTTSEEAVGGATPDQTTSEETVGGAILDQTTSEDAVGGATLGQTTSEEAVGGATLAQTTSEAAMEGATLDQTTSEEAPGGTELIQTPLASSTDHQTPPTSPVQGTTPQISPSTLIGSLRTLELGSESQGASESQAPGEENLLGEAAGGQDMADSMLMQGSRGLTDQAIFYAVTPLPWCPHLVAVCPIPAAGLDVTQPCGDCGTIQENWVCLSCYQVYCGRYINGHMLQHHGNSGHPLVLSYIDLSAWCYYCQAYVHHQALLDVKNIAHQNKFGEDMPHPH
Put plainly: HDAC6 Enzyme Assay. It counts as biochemical. The following applies: substrate Ac-Arg-Gly-Lys(Ac)-AMC peptide, 1 hour at 30° C. The procedure:
To measure the inhibition of HDAC6 activity, purified human HDAC6 (BPS Bioscience; Cat. No. 5006) is incubated with substrate Ac-Arg-Gly-Lys(Ac)-AMC peptide (Bachem Biosciences; Cat. No. I-1925) for 1 hour at 30° C. in the presence of test compounds or vehicle DMSO control. The reaction is stopped with the HDAC inhibitor trichostatin A (Sigma; Cat. No. T8552) and the amount of Arg-Gly-Lys-AMC generated is quantitated by digestion with trypsin (Sigma; Cat. No. T1426) and subsequent measurement of the amount of AMC released using a fluorescent plate reader (Pherastar; BMG Technologies) set at Ex 340 nm and Em 460 nm. Concentration response curves are generated by calculating the fluorescence increase in test compound-treated samples relative to DMSO-treated controls, and enzyme inhibition (IC50) values are determined from those curves.
What is called IC50 is the midpoint of a concentration-inhibition curve. The compound `CC(NS(=O)(=O)c1cn(C)cn1)c1ccc(C(=O)NO)s1` (stereo not drawn) [Compound I-33, N-hydroxy-5-(1-{[(1-methyl-1H-imidazol-4-yl)sulfonyl]amino}ethyl)thiophene-2-carboxamide] came in with a half-maximal inhibitory concentration (IC50) of 100 to 500 nM.
To `CC(NC(=O)NC(C)(C)C)c1ccc(C(=O)NO)s1` (stereo not drawn) [Compound I-34, 5-(1-{[(tert-butylamino)carbonyl]amino}ethyl)-N-hydroxythiophene-2-carboxamide] belongs 100 to 500 nM; to `Cc1ccccc1S(=O)(=O)NC(C)c1ccc(C(=O)NO)s1` (stereo not drawn) [Compound I-35, N-hydroxy-5-(1-{[(2-methylphenyl)sulfonyl]amino}ethyl)thiophene-2-carboxamide], 100 to 500 nM.
Then `CC(NC(=O)Nc1ccc(C(C)(C)C)cc1)c1ccc(C(=O)NO)s1` (stereo not drawn) [Compound I-36, 5-[1-({[(4-tert-butylphenyl)amino]carbonyl}amino)ethyl]-N-hydroxythiophene-2-carboxamide], with under 100 nM.
Then `CC(NC(=O)Nc1ccc(OC(F)F)cc1)c1ccc(C(=O)NO)s1` (stereo not drawn) [Compound I-37, 5-{1-[({[4-(difluoromethoxy)phenyl]amino}carbonyl)amino]ethyl}-N-hydroxythiophene-2-carboxamide], with under 100 nM; and `Cc1ccc(NC(=O)NC(C)c2ccc(C(=O)NO)s2)cc1C` (stereo not drawn) [Compound I-38, 5-[1-({[(3,4-dimethylphenyl)amino]carbonyl}amino)ethyl]-N-hydroxythiophene-2-carboxamide], with under 100 nM; and `C[C@@H](NC(=O)c1cc2ccccc2o1)c1ccc(C(=O)NO)s1` [Compound I-39, N-((1R)-1-{5-[(hydroxyamino)carbonyl]-2-thienyl}ethyl)-1-benzofuran-2-carboxamide], with under 100 nM.
For `Cc1ccccc1NC(=O)NC(C)c1ccc(C(=O)NO)s1` (stereo not drawn) [Compound I-40, N-hydroxy-5-[1-({[(2-methylphenyl)amino]carbonyl}amino)ethyl]thiophene-2-carboxamide], the IC50 was under 100 nM.
`Cc1noc(-c2ccccc2)c1NC(=O)NC(C)c1ccc(C(=O)NO)s1` (stereo not drawn) [Compound I-41, N-hydroxy-5-[1-({[(3-methyl-5-phenylisoxazol-4-yl)amino]carbonyl}amino)ethyl]thiophene-2-carboxamide] showed an IC50 of 100 to 500 nM.
Then `Cc1ccccc1CNC(=O)NC(C)c1ccc(C(=O)NO)s1` (stereo not drawn) [Compound I-42, N-hydroxy-5-[1-({[(2-methylbenzyl)amino]carbonyl}amino)ethyl]thiophene-2-carboxamide], with under 100 nM; and `C[C@@H](NC(=O)C1(C)CCCCC1)c1ccc(C(=O)NO)s1` [Compound I-43, N-hydroxy-5-((1R)-1-{[(1-methylcyclohexyl)carbonyl]amino}ethyl)thiophene-2-carboxamide], with over 500 nM; and `CC(NC(=O)Nc1ccccc1Oc1ccccc1)c1ccc(C(=O)NO)s1` (stereo not drawn) [Compound I-44, N-hydroxy-5-[1-({[(2-phenoxyphenyl)amino]carbonyl}amino)ethyl]thiophene-2-carboxamide], with under 100 nM.
On to `CC(NC(=O)Nc1ccc(C(F)(F)F)cc1)c1ccc(C(=O)NO)s1` (stereo not drawn) [Compound I-45, N-hydroxy-5-{1-[({[4-(trifluoromethyl)phenyl]amino}carbonyl)amino]ethyl}thiophene-2-carboxamide], for which the IC50 is under 100 nM.
Then `C[C@@H](NC(=O)c1ccc(-c2ccccc2)cc1)c1ccc(C(=O)NO)s1` [Compound I-46, 5-{(1R)-1-[(biphenyl-4-ylcarbonyl)amino]ethyl}-N-hydroxythiophene-2-carboxamide], with under 100 nM; and `CC(NS(=O)(=O)c1ccccc1F)c1ccc(C(=O)NO)s1` (stereo not drawn) [Compound I-47, 5-(1-{[(2-fluorophenyl)sulfonyl]amino}ethyl)-N-hydroxythiophene-2-carboxamide], with 100 to 500 nM.
Then `CC(NS(=O)(=O)c1ccccc1)c1ccc(C(=O)NO)s1` (stereo not drawn) [Compound I-48, N-hydroxy-5-{1-[(phenylsulfonyl)amino]ethyl}thiophene-2-carboxamide], with 100 to 500 nM; and `CC(NC(=O)c1ccc(OCc2ccccc2)cc1)c1ncc(C(=O)NO)s1` (stereo not drawn) [Compound I-49, 2-(1-{[4-(benzyloxy)benzoyl]amino}ethyl)-N-hydroxy-1,3-thiazole-5-carboxamide], with under 100 nM; and `CC(NC(=O)c1cc2cc(Cl)ccc2o1)c1ncc(C(=O)NO)s1` (stereo not drawn) [Compound I-50, 2-(1-{[(5-chloro-1-benzofuran-2-yl)carbonyl]amino}ethyl)-N-hydroxy-1,3-thiazole-5-carboxamide], with under 100 nM.
To `CC(NC(=O)c1cc2ccccc2n1C)c1ncc(C(=O)NO)s1` (stereo not drawn) [Compound I-51, N-(1-{5-[(hydroxyamino)carbonyl]-1,3-thiazol-2-yl}ethyl)-1-methyl-1H-indole-2-carboxamide] belongs under 100 nM; to `CC(NC(=O)c1cccn1C)c1ncc(C(=O)NO)s1` (stereo not drawn) [Compound I-52, N-hydroxy-2-(1-{[(1-methyl-1H-pyrrol-2-yl)carbonyl]amino}ethyl)-1,3-thiazole-5-carboxamide], 100 to 500 nM; to `CC(NC(=O)C(C)(C)C)c1ncc(C(=O)NO)s1` (stereo not drawn) [Compound I-53, 2-{1-[(2,2-dimethylpropanoyl)amino]ethyl}-N-hydroxy-1,3-thiazole-5-carboxamide], over 500 nM.
`CC(NC(=O)c1cc2ccccc2s1)c1ncc(C(=O)NO)s1` (stereo not drawn) [Compound I-54, 2-{1-[(1-benzothien-2-ylcarbonyl)amino]ethyl}-N-hydroxy-1,3-thiazole-5-carboxamide] showed an IC50 of under 100 nM.
Then `CC(NC(=O)C1(c2ccc(Cl)cc2)CCC1)c1ncc(C(=O)NO)s1` (stereo not drawn) [Compound I-55, 2-[1-({[1-(4-chlorophenyl)cyclobutyl]carbonyl}amino)ethyl]-N-hydroxy-1,3-thiazole-5-carboxamide], with over 500 nM; and `Cc1nc(-c2ccccn2)sc1C(=O)N[C@H](C)c1cc(C(=O)NO)cn1C` [Compound I-156, N-((1R)-1-{4-[(hydroxyamino)carbonyl]-1-methyl-1H-pyrrol-2-yl}ethyl)-4-methyl-2-pyridin-2-yl-1,3-thiazole-5-carboxamide], with over 500 nM; and `C[C@@H](NC(=O)C1(C)CCCCC1)c1cc(C(=O)NO)on1` [Compound I-157, N-hydroxy-3-((1R)-1-{[(1-methylcyclohexyl)carbonyl]amino}ethyl)isoxazole-5-carboxamide], with over 500 nM.
In the case of `C[C@@H](NC(=O)c1ccc(-c2ccccc2)cc1)c1cc(C(=O)NO)on1` [Compound I-158, 3-{(1R)-1-[(biphenyl-4-ylcarbonyl)amino]ethyl}-N-hydroxyisoxazole-5-carboxamide], the IC50 is over 500 nM.
For the compound `C[C@H](NC(=O)c1cc2ccccc2o1)c1ncc(C(=O)NO)s1` [Compound I-159, 2-{(1S)-1-[(1-benzofuran-2-ylcarbonyl)amino]ethyl}-N-hydroxy-1,3-thiazole-5-carboxamide], the IC50 was under 100 nM.
Compound `C[C@H](NC(=O)c1cccn1C)c1ncc(C(=O)NO)s1` [Compound I-160, N-hydroxy-2-((1S)-1-{[(1-methyl-1H-pyrrol-2-yl)carbonyl]amino}ethyl)-1,3-thiazole-5-carboxamide] registered an IC50 of 100 to 500 nM.
For `C[C@H](NC(=O)c1ccc(-c2ccccc2)cc1)c1ncc(C(=O)NO)s1` [Compound I-161, 2-{(1S)-1-[(biphenyl-4-ylcarbonyl)amino]ethyl}-N-hydroxy-1,3-thiazole-5-carboxamide], the IC50 is under 100 nM.
With `C[C@@H](NC(=O)C1(C)CCCCC1)c1ncc(C(=O)NO)s1` [Compound I-162, N-hydroxy-2-((1R)-1-{[(1-methylcyclohexyl)carbonyl]amino}ethyl)-1,3-thiazole-5-carboxamide], the IC50 was over 500 nM.
